Experimental data reported in patent US10695334B2, “Heteroaromatic carboxamide derivatives as plasma kallikrein inhibitors” (Boehringer Ingelheim International GmbH, priority 2018, dated 2020).

Key:
Type in all cases: biochemical
human TK1 = human TK1 (Homo sapiens (Human), UniProt P06870); experiment: Inhibition of TK1 (Ki); conditions: column head prints IC50, text above the table says Ki values
Description: The ability of compounds of formula (I) to inhibit plasma kallikrein (PKK), Factor Xlla (FXIIa), Factor Xla (FXIa), Factor Xa (FXa), Factor Ila (alpha-thrombin; FIIa), plasmin, trypsin, tissue kallikrein 1 (TK1), Factor VIIa (FVIIa), or FVIIa complexed with Tissue Factor, phospholipids and CaCl2 (FVIIa/TF/PL/CaCl2) was determined using the following biochemical assays in assay buffer (100 mM Tris, 150 mM NaCL, adjusted to a pH of 7.8 with HCl, and containing 0.1% (w/v) BSA and 0.05% (v/v) Tween20) in the presence of 1% (v/v) DMSO: EVALUATION OF THE INHIBITION OF PKK USING AN ENDPOINT ASSAY Human PKK (0.01 U/mL; Enzyme Research Laboratories) or rat PKK (0.625 nM; produced in-house) was incubated for 1 h at room temperature with 0.10 μM fluorogenic substrate H-Pro-Phe-Arg-AMC (11295 from Bachem) and various concentrations of the test compound in assay buffer. Subsequently, PPACK II (Calbiochem) was added as a stop solution to achieve a final concentration of 1 μM and fluorescence was measured using an Envision Reader (PerkinElmer) with the wavelength excitation setting of 355 nm and the wavelength emission setting of 460 nm.
Prior to the assay, human TK1 (R&D Systems) was activated by incubation with human trypsin (Calbiochem) in a 1:10,000 ratio for 15 min at 37° C. For assaying TK1 inhibitory activity, activated TK1 (31.25 nM or 1 U/mL) was incubated at 24° C. with 0.1 mM fluorogenic substrate H-Pro-Phe-Arg-AMC (11295 from Bachem) and various concentrations of the test compound in assay buffer. Measurements were performed in a kinetic interval every 2nd minute for 16 min using a Spectramax M5 (Molecular Devices) with the following settings of the wavelength excitation of 350 nm and wavelength emission of 450 nm.
The average Vmax values for the time interval from 2 to 12 min after initiation of the assay (expressed as either delta OD/min for assays using a chromogenic substrate or delta RFU/min for assays using a fluorigenic substrate, respectively) were plotted versus the Log of the concentration in molar of the evaluated inhibitor compound. The pIC50 values were then fitted using a four-parametric fitting procedure using GraphPad Prism (version 6; GraphPad Software, Inc.). Respective Ki values were obtained by correction of the IC50 values for the respective KM value of the used substrate (see Table A for the obtained KM values of the used substrates) using the following formula: […]
(§1) Where the IC50 is in molar and the KM value in mM.

Human PKK [1] = molecular target: T1, Human PKK (Homo sapiens (Human), UniProt P03952); experiment: Inhibition of PKK, endpoint assay (human PKK); conditions: substrate H-Pro-Phe-Arg-AMC, 1 h room temperature
Description: Subsequently, PPACK II (Calbiochem) was added as a stop solution to achieve a final concentration of 1 μM and fluorescence was measured using an Envision Reader (PerkinElmer) with the wavelength excitation setting of 355 nm and the wavelength emission setting of 460 nm.

Human PKK [2] = molecular target: T1, Human PKK; experiment: Inhibition of PKK (Ki), kinetic assay; conditions: 24° C., IC50 corrected for KM
Description: Measurements were performed in a kinetic interval every 2nd minute for 16 min using a Spectramax M5 (Molecular Devices) with the following settings of the wavelength excitation of 350 nm and wavelength emission of 450 nm. The number of the compound corresponds to the number of the Example in the experimental section.
The pIC50 values were then fitted using a four-parametric fitting procedure using GraphPad Prism (version 6; GraphPad Software, Inc.).
as §1

Sequence of human TK1 (P06870 25-262): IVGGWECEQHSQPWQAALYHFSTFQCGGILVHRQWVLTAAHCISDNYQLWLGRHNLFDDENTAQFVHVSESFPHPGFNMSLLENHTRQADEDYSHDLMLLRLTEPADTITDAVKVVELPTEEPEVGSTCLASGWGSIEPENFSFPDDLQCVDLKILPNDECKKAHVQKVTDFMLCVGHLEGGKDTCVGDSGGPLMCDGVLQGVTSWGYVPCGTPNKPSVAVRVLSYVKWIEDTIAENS
T1 sequence (P03952 391-638): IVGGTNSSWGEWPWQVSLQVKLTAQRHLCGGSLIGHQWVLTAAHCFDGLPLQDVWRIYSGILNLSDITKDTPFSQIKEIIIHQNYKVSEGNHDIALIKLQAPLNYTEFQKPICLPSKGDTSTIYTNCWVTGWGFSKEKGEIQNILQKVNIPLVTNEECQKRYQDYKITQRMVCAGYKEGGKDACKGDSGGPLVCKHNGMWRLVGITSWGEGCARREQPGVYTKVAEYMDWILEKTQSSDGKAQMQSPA
T1 sequence (P03952 20-390 partner): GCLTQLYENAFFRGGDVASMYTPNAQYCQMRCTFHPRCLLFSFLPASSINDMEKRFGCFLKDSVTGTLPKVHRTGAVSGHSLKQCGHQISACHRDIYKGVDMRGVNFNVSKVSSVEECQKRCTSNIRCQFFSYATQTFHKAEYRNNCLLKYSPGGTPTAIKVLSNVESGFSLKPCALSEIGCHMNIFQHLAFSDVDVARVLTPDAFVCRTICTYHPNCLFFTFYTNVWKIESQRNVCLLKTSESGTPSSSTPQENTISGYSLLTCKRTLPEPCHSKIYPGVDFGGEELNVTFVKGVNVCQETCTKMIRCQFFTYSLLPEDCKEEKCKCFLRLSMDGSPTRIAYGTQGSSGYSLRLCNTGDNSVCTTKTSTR

IC50 (human TK1) [nM]	IC50 (Human PKK [1]) [nM]	Ki (Human PKK [2]) [nM]	SMILES
> 10000	0.5	0.1	Cc1nc(N2CC3CC3C2)ccc1Cn1cc(C(=O)N[C@@H]2CCc3c(C)n[nH]c32)c(C(F)F)n1 (stereo partly drawn) [Example 14, 1-[(6-{3-Azabicyclo[3.1.0]hexan-3-yl}-2-methyl-pyridin-3-y)methyl]-3-(difluoromethyl)-N-[(6R)-3-methyl-1H,4H,5H,6H-cyclopenta[c]pyrazol-6-yl]-1H-pyrazole-4-carboxamide]
> 10000	0.8	0.1	COCc1nn(Cc2ccc(N3CC4C(C3)C4(F)F)nc2C)cc1C(=O)N[C@@H]1CCc2c(C)n[nH]c21 (stereo partly drawn) [Example 15, 1-[(6-{6,6-Difluoro-3-azabicyclo[3.1.0]hexan-3-yl}-2-methylpyridin-3-yl)methyl]-3-(methoxymethyl)-N-[(6R)-3-methyl-1H,4H,5H,6H-cyclopenta[c]-pyrazol-6-yl]-1H-pyrazole-4-carboxamide]
> 10000	0.9	0.1	COCc1nn(Cc2ccc(N3CC4CC4C3)nc2C)cc1C(=O)N[C@@H]1CCc2c(C)n[nH]c21 (stereo partly drawn) [Example 16, 1-[(6-{3-Azabicyclo[3.1.0]hexan-3-yl}-2-methyl-pyridin-3-yl)methyl]-3-(methoxymethyl)-N-[(6R)-3-methyl-1H,4H,5H,6H-cyclopenta[c]pyrazol-6-yl]-1H-pyrazole-4-carboxamide]
> 10000	1	0.3	Cc1nc(N2CC3CC3C2)ccc1Cn1cc(C(=O)N[C@@H]2CCc3c(C)n[nH]c32)c(C)n1 (stereo partly drawn) [Example 19, 1-[(6-{3-Azabicyclo[3.1.0]hexan-3-yl}-2-methyl-pyridin-3-yl)methyl]-3-methyl-N-[(6R)-3-methyl-1H,4H,5H,6H-cyclopenta[c]pyrazol-6-yl]-1H-pyrazole-4-carboxamide]
> 10000	1	0.2	COc1nn(Cc2ccc(N3CC4CC4C3)nc2C)cc1C(=O)N[C@@H]1CCc2c(C)n[nH]c21 (stereo partly drawn) [Example 20, 1-[(6-{3-Azabicyclo[3.1.0]hexan-3-yl}-2-methyl-pyridin-3-yl)methyl]-3-methoxy-N-[(6R)-3-methyl-1H,4H,5H,6H-cyclopenta[c]pyrazol-6-yl]-1H-pyrazole-4-carboxamide]
> 10000	4		Cc1nc(N2C[C@@H]3[C@@H](C)[C@@H]3C2)ccc1Cn1cc(C(=O)N[C@@H]2CCc3c2n[nH]c3C)cn1 [Example 79, N-[(6R)-3-Methyl-2H,4H,5H,6H-cyclopenta[c]pyrazol-6-yl]-1-({2-methyl-6-[(1R,5S,6R)-6-methyl-3-azabicyclo[3.1.0]hexan-3-yl]pyridin-3-yl}methyl)-1H-pyrazole-4-carboxamide]
> 10000	2		Cc1nc(N2CC3CC3C2C)ccc1Cn1cc(C(=O)N[C@@H]2CCc3c2n[nH]c3C)cn1 (stereo partly drawn) [Example 82, N-[(6R)-3-Methyl-2H,4H,5H,6H-cyclopenta[c]pyrazol-6-yl]-1-[(2-methyl-6-{2-methyl-3-azabicyclo[3.1.0]hexan-3-yl}pyridin-3-yl)methyl]-1H-pyrazole-4-carboxamide]
> 10000	0.4		Cc1nc(N2CC3CC3C2)ccc1Cn1cc(C(=O)N[C@@H]2CCc3c(C)n[nH]c32)nn1 (stereo partly drawn) [Example 86, 1-[(6-{3-Azabicyclo[3.1.0]hexan-3-yl}-2-methylpyridin-3-yl)methyl]-N-[(6R)-3-methyl-1H,4H,5H,6H-cyclopenta[c]pyrazol-6-yl]-1H-1,2,3-triazole-4-carboxamide]
> 10000	1		Cc1nc(N2CC3(CC3)C2)ccc1Cn1cnc(C(=O)N[C@@H]2CCc3c(C)n[nH]c32)c1 [Example 88, 1-[(6-{5-Azaspiro[2.3]hexan-5-yl}-2-methylpyridin-3-yl)methyl]-N-[(6R)-3-methyl-2H,4H,5H,6H-cyclo-penta[c]pyrazol-6-yl]-1H-imidazole-4-carboxamide]
> 10000	0.6		Cc1nc(N2CC3C(C2)C3(F)F)ccc1Cn1cnc(C(=O)N[C@@H]2CCc3c2n[nH]c3C)c1 (stereo partly drawn) [Example 89, 1-[(6-{6,6-Difluoro-3-azabicyclo[3.1.0]hexan-3-yl}-2-methylpyridin-3-yl)methyl]-N-[(6R)-3-methyl-2H,4H,5H,6H-cyclopenta[c]pyrazol-6-yl]-1H-imidazole-4-carboxamide]
> 10000	0.8		Cc1nc(N2CC3CC3C2)ccc1Cn1cnc(C(=O)N[C@@H]2CCc3c2n[nH]c3C)c1 (stereo partly drawn) [Example 90, 1-[(6-{3-Azabicyclo[3.1.0]hexan-3-yl}-2-methyl-pyridin-3-yl)methyl]-N-[(6R)-3-methyl-2H,4H,5H,6H-cyclopenta[c]pyrazol-6-yl]-1H-imidazole-4-carboxamide]
> 10000	1		Cc1nc(N2CC3C(C2)C3(F)F)ncc1Cn1cnc(C(=O)N[C@@H]2CCc3c2n[nH]c3C)c1 (stereo partly drawn) [Example 92, 1-[(2-{6,6-Difluoro-3-azabicyclo[3.1.0]hexan-3-yl}-4-methylpyrimidin-5-yl)methyl]-N-[(6R)-3-methyl-2H,4H,5H,6H-cyclopenta[c]pyrazol-6-yl]-1H-imidazole-4-carboxamide]
> 10000	4		Cc1nc(N2CC3(CC3)C2)ncc1Cn1cnc(C(=O)N[C@@H]2CCc3c(C)n[nH]c32)c1 [Example 93, 1-[(2-{5-Azaspiro[2.3]hexan-5-yl}-4-methyl-pyrimidin-5-yl)methyl]-N-[(6R)-3-methyl-2H,4H,5H,6H-cyclopenta[c]pyrazol-6-yl]-1H-imidazole-4-carboxamide]
> 10000	3		Cc1nc(N2CC3CC3C2)ccc1Cc1ccc(C(=O)N[C@@H]2CCc3c(C)n[nH]c32)[nH]1 (stereo partly drawn) [Example 109, 5-[(6-{3-Azabicyclo[3.1.0]hexan-3-yl}-2-methylpyridin-3-yl)methyl]-N-[(6R)-3-methyl-1H,4H,5H,6H-cyclopenta[c]pyrazol-6-yl]-1H-pyrrole-2-carboxamide]

SMILES	IC50 (human TK1) [nM]	IC50 (Human PKK [1]) [nM]	Ki (Human PKK [2]) [nM]
Cc1nc(N2CC3C(C2)C3(F)F)ccc1Cn1cc(C(=O)N[C@@H]2CCc3c(C)n[nH]c32)c2cncnc21 (stereo partly drawn) [Example 13, 7-[(6-{6,6-Difluoro-3-azabicyclo[3.1.0]hexan-3-yl}-2-methylpyridin-3-yl)methyl]-N-[(6R)-3-methyl-1H,4H,5H,6H-cyclopenta[c]pyrazol-6-yl]-7H-pyrrolo[2,3-d]pyrimidine-5-carboxamide]	> 10000	0.5	0.1
Cc1nc(N2CC3CC3C2)ccc1Cn1cc(C(=O)N[C@@H]2CCc3c(C)n[nH]c32)c2cncnc21 (stereo partly drawn) [Example 17, 7-[(6-{3-Azabicyclo[3.1.0]hexan-3-yl}-2-methyl-pyridin-3-yl)methyl]-N-[(6R)-3-methyl-1H,4H,5H,6H-cylcopenta[c]pyrazol-6-yl]-7H-pyrrolo[2,3-d]pyrimidine-5-carboxamide]	> 10000	0.9	0.1
Cc1nc(N2CC3C(C2)C3(F)F)ncc1Cn1cc(C(=O)N[C@@H]2CCc3c(C)n[nH]c32)c2cncnc21 (stereo partly drawn) [Example 21, 7-[(2-{6,6-Difluoro-3-azabicyclo[3.1.0]hexan-3-yl}-4-methylpyrimidin-5-yl)methyl]-N-[(6R)-3-methyl-1H,4H,5H,6H-cyclopenta[c]pyrazol-6-yl]-7H-pyrrolo[2,3-d]pyrimidine-5-carboxamide]	> 10000	1	0.1
Cc1nc(N2C[C@@H]3[C@@H](CO)[C@@H]3C2)ccc1Cn1cc(C(=O)N[C@@H]2CCc3c(C)n[nH]c32)cn1 [Example 94, 1-({6-[(1R,5S,6R)-6-(hydroxymethyl)-3-azabicyclo[3.1.0]hexan-3-yl]-2-methylpyridin-3-yl}methyl)-N-[(6R)-3-methyl-1H,4H,5H,6H-cyclopenta[c]pyrazol-6-yl]-1H-pyrazole-4-carboxamide]	> 10000	2	
